Patent US20160030391A1, “METHODS AND COMPOSITIONS FOR IMPROVING COGNITIVE FUNCTION” (THE JOHNS HOPKINS UNIVERSITY, priority 2013, published 2016)

What was measured:
[1] = system: ventral tegmental dopamine (DA) neurons of MAM rats; settings: cited from earlier work
MAM-treated rats = settings: cited from earlier work
[2] = system: Memory-impaired aged rats; experiment: Radial Arm Maze task, 2-hr delay, acute brivaracetam or seletracetam; type: in vivo, rat; settings: 0.0625-4 mg/kg i.p. 30-40 min prior to test sessions; repeated measures ANOVA
Description: (§1) The radial arm maze experiments used acute administration of seletracetam (0-4 mg/kg), brivaracetam (0-4 mg/kg), or saline vehicle given by intraperitoneal injection (in a volume of 1 ml/kg) 30-40 min prior to test sessions. In the chronic treatment experiment, memory-impaired aged rats were implanted subcutaneously in the intrascapular region with osmotic mini-pumps (ALZET, Durect Corporation, Cupertino, Calif.) with brivaracetam (2 mg/kg/day) or saline vehicle starting two weeks prior to assessment in the water maze.
A radial arm maze (RAM) task was used to assess effects of acute drug treatment with seletracetam and brivaracetam. This protocol allowed within-subject assessment across drugs at different doses. The radial maze consisted of eight arms projecting from each side of an octagonal center platform, with a food well located at the distal end of each arm. Plexiglas blocks could be positioned to prevent entry into any arm. Extra-maze cues were provided in the room surrounding the maze and illumination was provided by an overhead light.
Pre-training, as described in detail in Chappell et al. Neuropharmacology 37: 481-487, (1998), consisted of habituation, standard win-shift training, and win-shift training with delays interposed between information and memory test phases. […]

[3] = system: Memory-impaired aged rats; experiment: water maze probe test after chronic brivaracetam (osmotic mini-pumps); type: in vivo, rat; settings: brivaracetam 2 mg/kg/day, 14 days
Description: as §1
Rats were trained and tested in a novel water maze environment to assess the effect of drug treatment. The water maze used here was housed in a different building and was surrounded by curtains with a novel set of patterns relative to the maze used for initial assessment of cognitive status. The training protocol consisted of 6 trials per day for 2 days to locate a submerged escape platform. On each trial, a rat was released in the maze from one of four equally spaced starting positions around the perimeter of the pool. The starting position varied from trial to trial. […] The rat was then removed from the platform and placed in a holding cage for another 40 s before the next trial. Approximately 24 hr after the last training trial, a probe test in the absence of the escape platform was given to assess spatial memory.

[4] = system: HPC neurons in saline-treated and MAM-treated animals; settings: cited from earlier work

Structure (SMILES): NC1=N[C@H](O)[C@H]2[C@H]3O[C@]4(O)O[C@@H]([C@@H](O)[C@@]2(N1)[C@@H]4O)[C@]3(O)CO [TTX, tetrodotoxin]
- elevated DA neuron population activity ([1]; rat, in vivo): completely reversed
- augmented amphetamine-induced locomotor behavior (MAM-treated rats; rat, in vivo): normalized

Structure (SMILES): CCC[C@@H]1CC(=O)N([C@@H](CC)C(N)=O)C1 [brivaracetam]
- number of errors in the retention phase after the 2-hr delay, effect of dose [2]: significant effect as a function of dose
- spatial bias for the target quadrant compared to the other quadrants [3]: significant spatial bias
- time in the target annulus vs vehicle-treated rats [3]: significantly more time
- time in the target quadrant vs vehicle-treated rats [3]: significantly more time

Structure (SMILES): CC[C@@H](C(N)=O)N1C[C@H](C=C(F)F)CC1=O [seletracetam]
- number of errors in the retention phase after the 2-hr delay, effect of dose [2]: significant effect as a function of dose

Structure (SMILES): C#Cc1ccc2c(c1)C(c1ccccc1F)=N[C@H](C)c1c(C(=O)OCC)ncn1-2 [SH-053-2′F—R—CH3]
- cortical-evoked responses of HPC neurons [4]: diminished
- number of spontaneously active DA neurons in the ventral tegmental area (VTA) of MAM rats ([1]; administered systemically and directly infused into the ventral HPC): reduces
- increased locomotor response to amphetamine in MAM-treated rats (MAM-treated rats; following the α5GABAAR PAM treatment): reduced
